Data from patent US6455504B1, “Pesticidal macrolides” (priority 1999, dated 2002).

Tests used:
[1] = system: Beet Armyworm (Spodoptera littoralis) larvae; experiment: Beet Armyworm Topical Assay; type: in vivo; conditions: rate 1 ug/larva, 21° C.
Description: B. Beet Armyworm (Spodoptera littoralis) Topical Assay.
An additional measure of the relative insecticidal activities of the formula 1 compounds was generated by using a 1 μg/μL methanol solution of each compound applied at 1 μL per larva of laboratory-reared Spodoptera littoralis, (mean wt of 43 mg). Each compound was applied along the dorsum of each of six larvae. Treated larvae were then held for five days at 21° C., 60% RH in six well plastic culture plates. Larvae were each supplied with a 1 cm^3 of agar-based lepidoptera diet for sustenance during the 5-day post-exposure interval. Percent mortality was determined at the end of a five day period.

[2] = system: Tobacco Budworm (Heliothis virescens) neonate larvae; experiment: Tobacco Budworm Neonate Drench Assay; type: in vivo; conditions: rate 50 ppm, 27° C.
Description: A. Tobacco Budworm (Heliothis virescens) Neonate Drench Assay.
To compare insecticidal activities of formula 1 compounds in neonate (<6 hr post-eclosion) larval Heliothis virescens, 1 μg/μL acetone solutions of each of the metabolites were first prepared. The acetone solutions were then diluted with Millipore H2O containing 0.025% Triton X-100 surfactant to yield treatments of 25 or 50 ppm. One milliliter of either concentration of each metabolite was then pipetted directly over and onto a 100-mm diameter #1 Whatman qualitative filter paper circle upon which 20 tobacco budworm neonate larvae had been gently placed. Each treated filter paper and its associated larvae was then placed in a 20 mm×100 mm disposable plastic petri plate. One-hour later, a 1 cm^3 portion of agar-based lepidoptera diet (modified Shorey diet, Southland Products, Lake Village, Ariz.) was placed into each plate as a larval food source. The petri plate were held at 27° C. for 24 hr and then percent larval mortality in each treatment was determined.

[3] = system: larval ticks (Amblyomma americannum); experiment: In vitro Tick Larval Packet Test (LPT) Assay; conditions: 24 hours
Description: Titrated levels of experimental compounds were dissolved in a combination of olive oil and trichloroethylene and pipetted onto squares of laboratory filter paper. After allowing about an hour for the trichloroethylene to evaporate, the filter papers were folded in half and two sides secured with clamps, forming packets.
Approximately, 100 larval ticks (Amblyomma americannum) were placed inside each packet and the remaining open side secured with a clamp. The packets were incubated for 24 hours at approximately 72° F. and 95% humidity. Each packet was opened separately and the number of live and dead larvae determined. Percent mortality was determined for each compound.

adult stable fly = experiment: In vivo Mouse/Adult Stable Fly (ASF) Assay; design: species or system adult stable fly fed on mice (Mus musculus); conditions: mice dosed 100 mg/kg, orally or topically
Description: On Study Day 0, six, thirty-gram, white laboratory mice (Mus musculus) (8-10 week old, ICR females, Harlan-Sprague-Dawley, Inc., Indianapolis, Ind.) per treatment were dosed with test article or solvent (90% ethyl oleate/10% DMSO), either orally or topically. On Study Day 1, two mice from each treatment were anesthetized with a 0.25 mL intramuscular injection of a combination of 1.0 mL ketamine (Fort Dodge, Ketaset®, ketamine HCl injection, 100 mg/mL) and 1.0 mL xylazine (Bayer, Rompun®, 20 mg/mL injectable) in 4.5 mL sterile water. The anesthetized mice were placed in the fly boxes containing 30 adult stable fly. The anesthetized mice were left in the boxes for up to 60 minutes and the flies allowed to obtain a blood meal undisturbed. After removal from the fly boxes, the unconscious mice were immediately euthanized with CO2. The fly boxes were exposed to a 12-our day/12-hour night cycle for the entire study period. The temperature in the assay room was 68-72° F. and the humidity was 50-60%. These procedures were repeated exactly on Study Days 2 and 3 with the remaining treated mice. Each day the number of dead flies was recorded and fly boxes discarded. Total percent fly mortality was determined for each treatment and compared to fly mortality of continuously fed ASF and ASF fed on solvent treated control mice.

[4] = system: adult stable flies (Stomoxys calcitrans); experiment: In vitro Adult Stable Fly Assay
Description: Dental wicks were saturated with serum containing titrated levels of experimental compounds starting at 100 ppm. The dental wicks were placed in petri dishes along with 10 adult stable flies (Stomoxys calcitrans) previously chilled for easier handling. Percent mortality was determined after 24 and 48 hours incubation at approximately 25° C. and 75-85% humidity when compared to a dish containing a wick with control serum only.

[5] = system: larval blowfly (Phormia regina); experiment: In vitro Larval Blow Fly Assay; design: key to efficacy by visual inspection for larvae movement: A indicates mortality as indicated by absence of larvae movement; N indicates that larvae movement was observed; conditions: for efficacy by visual inspection for larvae movement: up to 48 hours
Description: Filter inserts were placed individually in 96-well mictrotiter plates. Each insert was saturated with bovine serum combined with titrated levels of experimental compounds starting at 100 ppm. Approximately 30 larval blowfly (Phormia regina) were placed each well and the entire plate sealed. The plates were incubated for up to 48 hours incubation at approximately 25° C. and 75-85% humidity after which efficacy was determined by visual inspection of each well for larvae movement. The results of testing compounds 1 and 8 are as follows (both compounds were active above 5 ppm): […]

CCC=CC1CCCC(OC2CCC(NC)C(C)O2)C(C)C(=O)C2=CC3C(C=CC4CC(OC5OC(C)C(OC)C(OC)C5OC)CC43)C2CC(=O)O1 (stereo not drawn) [Compound 3]
Beet Armyworm Topical (120 hr) Mortality (%) [1]: 100%

CCC=CC1CCCC(OC2CCC(N(C)C)C(C)O2)C(C)C(=O)C2=CC3C(C=C(C)C4CC(OC5OC(C)C(OC)C(OC)C5OC)CC43)C2CC(=O)O1 (stereo not drawn) [Compound 7]
Tobacco Budworm Neonate Drench (24 hr) Mortality (%) [2]: 100%

CCC=CC1CCCC(OC2CCC(N(C)C)C(C)O2)C(C)C(=O)C2=CC3C(C=CC4C(O)C(OC5OC(C)C(OC)C(OC)C5OC)CC43)C2CC(=O)O1 (stereo not drawn) [Compound 8]
Percent mortality ([3]; 0.05%/500 ppm): 12.47%
Percent mortality ([3]; 0.1%/1000 ppm): 69.87%
Percent mortality ([3]; 0.5%/5000 ppm): 100%
% mortality Day 2 (adult stable fly; Study Day 2): 46%
% mortality Day 3 (adult stable fly; Study Day 3): 76%
% mortality Day 1 (adult stable fly; flies fed on Study Day 1): 13%
% mortality Total (adult stable fly; total percent fly mortality): 76%
% mortality ([4]; 0.1 ppm in serum, 24 hr): 0%
% mortality ([4]; 0.1 ppm in serum, 48 hr): 0%
% mortality ([4]; 0.5 ppm in serum, 24 hr): 10%
% mortality ([4]; 0.5 ppm in serum, 48 hr): 10%
% mortality ([4]; 1.0 ppm in serum, 24 hr): 30%
% mortality ([4]; 1.0 ppm in serum, 48 hr): 80%
% mortality ([4]; 5.0 ppm in serum, 24 hr): 90%
% mortality ([4]; 5.0 ppm in serum, 48 hr): 100%
efficacy by visual inspection for larvae movement ([5]; 0.15 ppm in bovine serum): N
efficacy by visual inspection for larvae movement ([5]; 0.31 ppm in bovine serum): N
efficacy by visual inspection for larvae movement ([5]; 0.62 ppm in bovine serum): N
efficacy by visual inspection for larvae movement ([5]; 1.25 ppm in bovine serum): N
efficacy by visual inspection for larvae movement ([5]; 2.5 ppm in bovine serum): N
efficacy by visual inspection for larvae movement ([5]; 5 ppm in bovine serum): A
activity against larval blowfly ([5]; above 5 ppm (titrated from 100 ppm)): active
